Reference: patent US20250177351A1, “ISOINDOLINE COMPOSITIONS AND METHODS FOR TREATING NEURODEGENERATIVE DISEASE” (Cognition Therapeutics, Inc., priority 2022, published 2025)

Assays:
CSF proteins = assay: CSF proteomics by tandem-mass tag mass spectrometry (TMT-MS), SPARC trial; type: in vivo, human
From the text: A stringent filter was used to reduce noise. […] Samples were acquired from placebo and the drug and interventional cohort. Using biomarker differential-expression analysis, proteins that were differentially expressed between drug and placebo cohorts were identified (p<0.05).

[1] = test system: DIV21 hippocampal/cortical cultures with Aβ oligomers; assay: Neurogranin expression study in vitro; type: cell-based; conditions: Aβ42 oligomers 500 nM, 1 hr, followed by CT1812 4.8 nM, 24 hr
Method: Neurons were fixed in 3.75% formaldehyde and stained with full-length neurogranin (Abcam catalogue #ab23570, used in combination with novel Ng7 to detect full length neurogranin inAlzheimer's disease patient brain IP; Kvartsberg et al. 2015 Blennow lab), MAP2 (Millipore), and 4G8 (Biolegend) antibodies. Imaging was performed on Cellomics VX automated microscope with a 20×, 0.75 NA objective and analyzed using a compartmental analysis algorithm to measure staining in the nucleus versus cytoplasm.

[2] = Aged transgenic mouse models of AD; type: in vivo
sigma-2 receptor complex = target: T1, sigma-2 receptor complex (Mus musculus, UniProt Q8VD00); assay: Projected receptor occupancy from human CSF concentrations, based on mouse Alzheimer's disease models; type: in vivo
T1 construct: from tissue; host or cells: brain, in vivo (projection from human CSF concentrations; occupancy itself determined in transgenic mouse brain)
T1 sequence (Q8VD00 1-176): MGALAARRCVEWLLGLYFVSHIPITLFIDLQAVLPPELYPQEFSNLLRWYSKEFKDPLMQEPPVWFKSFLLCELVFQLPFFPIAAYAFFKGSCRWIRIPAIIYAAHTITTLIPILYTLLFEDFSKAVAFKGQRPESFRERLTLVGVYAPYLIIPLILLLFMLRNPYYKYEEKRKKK
Method: Horizontal lines indicate projected receptor occupancy based on concentration and receptor occupancy determined in pre-clinical mouse Alzheimer's disease models.
At the 840 mg dose, CSF levels reached those associated with 98% receptor occupancy.

[3] = Phase 1 MAD study: safety assessments; type: in vivo, human
Method: In Part B, healthy young subjects in each cohort received the same dose once daily for 14 days after overnight fasting. Cohort dosing started at 280 mg, followed by 560 mg and 840 mg in subsequent cohorts. In each cohort, eight subjects received drug and two received placebo. A fourth cohort of healthy elderly subjects (≥65 years old) received a 560 mg dose vs. placebo daily for 14 days (seven active, two placebo).
Subjects were dosed in the morning with 240 mL of water after an 8-hour fast, and remained in a semi-reclined position for 1 hour and fasting for 2 hours post-administration, except for the fed cohort in Part A. Subjects in each MAD cohort were confined to the clinical facility from check-in on Day 0 until the pharmacokinetic sample was collected on Day 16, 48 hours after administration of the last dose on Day 14. Subjects returned to the clinical facility for follow-up visits on Days 24 and 35.
Safety variables, including incidence of adverse events (AEs), vital signs, clinical laboratory findings, 12-lead electrocardiographs (ECGs), physical examination, and affective and cognitive measures (Part B only), were summarized for all subjects who received study drug.

[4] = AD patients treated at least 6 months, p<0.05
[5] = MAD, age ≤ 64 years, 280 mg (n = 8)
[6] = MAD, age ≤ 64 years, 560 mg (n = 8)
[7] = MAD, age ≤ 64 years, 840 mg (n = 8)
[8] = MAD, age ≥ 65 years, 560 mg (n = 7)

For `CC(C)(C)Oc1cc(CCC(C)(C)N2Cc3ccc(S(C)(=O)=O)cc3C2)ccc1O` [CT1812], the “CHI3L1 (YKL-40) in CSF vs placebo” value (CSF proteins; [4]) was “significantly decreased”, the “CLU (clusterin) in CSF vs placebo” value (CSF proteins; [4]) was “significantly decreased” and the “SMOC1 in CSF vs placebo” value (CSF proteins; [4]) was “significantly decreased”. The “number of significantly abundant proteins in CSF, CT1812 vs placebo” value (CSF proteins; N=18, p<0.05) was 326, the “full length neurogranin protein expression in neurons” value [1] was “restores neurogranin expression” and the cognitive performance ([2]; aged transgenic mouse models of AD) was “restoring normal cognitive performance”. The “inflammatory protein expression in CSF” value ([2]; chronic treatment of aged transgenic mice, efficacious doses, LC/MSMS) was “significantly reduces”, the receptor occupancy at 560 mg (sigma-2 receptor complex; 560 mg dose, read-out: receptor occupancy in transgenic mouse brain associated with human CSF level) was 95% and the “receptor occupancy in mouse brain equivalent to average human CSF concentrations” value (sigma-2 receptor complex; 560 mg-840 mg dose range, 1.5 hr post-dose) was 97-98%. The receptor occupancy at 840 mg (sigma-2 receptor complex; 840 mg dose, read-out: receptor occupancy associated with human CSF level) was 98%, the tolerability ([3]; 280 mg to 840 mg QD for 14 days, healthy subjects) was “well tolerated” and the ECG ([3]; MAD) was “No ECG parameters or changes were assessed as clinically significant”. The “Number of Subjects with TEAE: Back pain” value ([3]; MAD Total Active (n = 31)) was 2, the “Number of Subjects with TEAE: Catheter site phlebitis” value (from here on “Number … Catheter site phlebitis”) ([3]; MAD Total Active (n = 31)) was 2 and the “Number of Subjects with TEAE: Dizziness” value ([3]; MAD Total Active (n = 31)) was 3. For the same compound, the “Number of Subjects with TEAE: Dyspepsia” value ([3]; MAD Total Active (n = 31)) was 3, the “Number of Subjects with TEAE: Headache” value ([3]; MAD Total Active (n = 31)) was 10 and the “Number of Subjects with TEAE: Nausea” value ([3]; MAD Total Active (n = 31)) was 2. For the same compound, the “Number of Subjects with TEAE: Procedural pain” value (shortened to “Number … Procedural pain”) ([3]; MAD Total Active (n = 31)) was 6, the “Number of Subjects with TEAE: Upper respiratory tract infection” value (“Number … Upper respiratory tract infection” below) ([3]; MAD Total Active (n = 31)) was 8 and the “Number of Subjects with TEAE: Vomiting” value ([3]; MAD Total Active (n = 31)) was 2. The “Number of Subjects with at least one Treatment-Emergent AE: All TEAES” value (from here on “Number of Subjects … All TEAES”) ([3]; MAD Total Active (n = 31)) was 25, the “Number of Subjects with TEAE: Dizziness” value [3, 5] was 1 and the “Number of Subjects with TEAE: Dyspepsia” value [3, 5] was 1. The “Number of Subjects with TEAE: Headache” value [3, 5] was 2, the “Number of Subjects with TEAE: Nausea” value [3, 5] was 1 and the “Number … Upper respiratory tract infection” value [3, 5] was 5. The “Number of Subjects … All TEAES” value [3, 5] was 7, the “Number … Catheter site phlebitis” value [3, 6] was 1 and the “Number of Subjects with TEAE: Dyspepsia” value [3, 6] was 1. The “Number of Subjects with TEAE: Headache” value [3, 6] was 1, the “Number … Procedural pain” value [3, 6] was 4 and the “Number … Upper respiratory tract infection” value [3, 6] was 1. For the same compound, the “Number of Subjects … All TEAES” value [3, 6] was 7, the “Number of Subjects with TEAE: Back pain” value [3, 7] was 1 and the “Number … Catheter site phlebitis” value [3, 7] was 1. The “Number of Subjects with TEAE: Dizziness” value [3, 7] was 1, the “Number of Subjects with TEAE: Dyspepsia” value [3, 7] was 1 and the “Number of Subjects with TEAE: Headache” value [3, 7] was 4. For the same compound, the “Number of Subjects with TEAE: Nausea” value [3, 7] was 1, the “Number … Procedural pain” value [3, 7] was 2 and the “Number … Upper respiratory tract infection” value [3, 7] was 2. For the same compound, the “Number of Subjects with TEAE: Vomiting” value [3, 7] was 2, the “Number of Subjects … All TEAES” value [3, 7] was 6 and the “Number of Subjects with TEAE: Back pain” value [3, 8] was 1. For the same compound, the “Number of Subjects with TEAE: Dizziness” value [3, 8] was 1, the “Number of Subjects with TEAE: Headache” value [3, 8] was 3 and the “Number of Subjects … All TEAES” value [3, 8] was 5. For the same compound, the “serious AE (SAE)” value ([3]; MAD, subject on 840 mg, respiratory picornavirus infection deemed unrelated to study treatment) was “One”, the “subjects developing a rash” value ([3]; MAD, improvement after discontinuing CT1812) was “One” and the “subjects with increase in liver function tests below 3× the upper limit of normal” value ([3]; MAD, including one subject on placebo) was “Four”.
